Source: patent US9200051B2, “Peptide compound” (TAKEDA PHARMACEUTICAL COMPANY LIMITED, priority 2013, dated 2015)
Like-named read-outs stand apart in the source and are kept apart here. Square brackets hold non-standard residues; d marks the D form. Peptide text beside a SMILES is read from it. αMeF = C[C@](N)(Cc1ccccc1)C(=O)O; Cha = N[C@@H](CC1CCCCC1)C(=O)O; Aib = CC(C)(N)C(=O)O

Experiments:
human GLP-1R = target: T1, human GLP-1R (Homo sapiens, UniProt P43220); experiment: Agonist activity against human GLP-1R, CRE-luciferase reporter assay in hGLP-1R/CRE-luc/CHO-K1 cells; assay type: cell-based
T1 construct: expressed in transfected cells; host or cells: CHO-K1, plasmids hGLP-1/pIRESneo3 and Cre-luc(Zeo)
T1 sequence (P43220 24-463): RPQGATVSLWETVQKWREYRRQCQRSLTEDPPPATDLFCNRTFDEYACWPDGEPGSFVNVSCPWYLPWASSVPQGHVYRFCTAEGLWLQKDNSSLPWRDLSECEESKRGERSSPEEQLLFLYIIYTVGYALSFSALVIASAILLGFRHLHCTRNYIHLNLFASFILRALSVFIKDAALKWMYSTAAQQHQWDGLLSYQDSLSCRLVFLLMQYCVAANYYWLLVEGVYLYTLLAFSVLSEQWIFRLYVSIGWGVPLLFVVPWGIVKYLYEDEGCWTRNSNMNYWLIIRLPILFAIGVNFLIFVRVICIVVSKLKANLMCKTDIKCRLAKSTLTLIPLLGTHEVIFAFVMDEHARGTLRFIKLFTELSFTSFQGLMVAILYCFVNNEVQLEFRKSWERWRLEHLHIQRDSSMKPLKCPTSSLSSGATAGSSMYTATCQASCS

[1] = Solubility test in Britton-Robinson buffer, observed visually; assay type: physicochemical
Method: The test compound of approximately 2 mg was measured precisely. Solvents (10 μL, 20 μL or 40 μL) with different pH (Britton-Robinson buffer (pH 3, 5, 7, 9)) were added to each test compound at 25° C., and the solubility was observed visually.

human GIPR = target: T2, human GIPR (Homo sapiens, UniProt P48546); experiment: Agonist activity against human GIPR, CRE-luciferase reporter assay (rise in intracellular cAMP) in hGIPR/CRE-LUC/CHO-K1 cells; assay type: cell-based
T2 construct: expressed in transfected cells; host or cells: CHO-K1 (CRE-LUC/CHO-K1), plasmid hGIPR/pMSRα-neo
T2 sequence (P48546 22-466): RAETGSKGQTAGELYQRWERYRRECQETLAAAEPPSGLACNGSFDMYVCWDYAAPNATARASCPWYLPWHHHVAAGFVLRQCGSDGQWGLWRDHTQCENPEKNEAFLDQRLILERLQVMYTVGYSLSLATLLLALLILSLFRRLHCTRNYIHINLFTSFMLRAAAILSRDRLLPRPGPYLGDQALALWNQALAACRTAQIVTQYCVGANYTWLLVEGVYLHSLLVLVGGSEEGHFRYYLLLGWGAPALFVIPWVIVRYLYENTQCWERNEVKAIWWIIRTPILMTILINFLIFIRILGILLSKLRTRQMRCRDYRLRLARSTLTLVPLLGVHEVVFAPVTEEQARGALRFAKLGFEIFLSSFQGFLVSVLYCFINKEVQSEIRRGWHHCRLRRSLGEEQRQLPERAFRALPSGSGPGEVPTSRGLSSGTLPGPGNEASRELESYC

human glucagon R = target: T3, human glucagon R (Homo sapiens, UniProt P47871); experiment: Agonist activity against human glucagon R, CRE-luciferase reporter assay in hGlucagonR/CRE-LUC/CHO-K1 cells; assay type: cell-based
T3 construct: expressed in transfected cells; host or cells: CHO-K1 (CRE-LUC/CHO-K1), plasmid hGlucagonR/pMSRα-neo
T3 sequence (P47871 26-477): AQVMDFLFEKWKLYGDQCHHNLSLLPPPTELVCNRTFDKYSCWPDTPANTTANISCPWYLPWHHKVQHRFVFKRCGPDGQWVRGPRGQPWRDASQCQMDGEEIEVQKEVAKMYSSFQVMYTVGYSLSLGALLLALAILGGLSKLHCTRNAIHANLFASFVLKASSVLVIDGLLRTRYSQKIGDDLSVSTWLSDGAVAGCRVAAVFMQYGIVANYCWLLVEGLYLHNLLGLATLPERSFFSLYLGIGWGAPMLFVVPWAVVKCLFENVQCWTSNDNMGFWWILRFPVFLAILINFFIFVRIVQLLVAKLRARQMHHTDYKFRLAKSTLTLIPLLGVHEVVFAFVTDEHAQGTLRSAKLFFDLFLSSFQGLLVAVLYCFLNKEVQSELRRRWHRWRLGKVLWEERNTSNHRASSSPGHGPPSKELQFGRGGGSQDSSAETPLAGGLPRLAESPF

[2] = hGLP-1R/CRE-luc/CHO-K1 cells, 4 hours incubation, 10 nM GLP-1 = 100%, read-out: Agonist activity (EC50) hGLP-1R
[3] = hGIPR/CRE-LUC/CHO-K1 cells, 4 hours incubation, 10 nM GIP = 100%, read-out: Agonist activity (EC50) hGIPR
[4] = hGlucagonR/CRE-LUC/CHO-K1 cells, 4 hours incubation, 10 nM glucagon = 100%, read-out: Agonist activity (EC50) hGCGR

| SMILES | EC50 (human GLP-1R) [nM] | solubility ([1]; Britton-Robinson buffer pH 3, 25° C., visual, read-out: Solubility (mg /mL) pH 3) [mg/mL] | solubility ([1]; Britton-Robinson buffer pH 5, 25° C., visual, read-out: Solubility (mg /mL) pH 5) [mg/mL] | solubility ([1]; Britton-Robinson buffer pH 7, 25° C., visual, read-out: Solubility (mg /mL) pH 7) [mg/mL] | solubility ([1]; Britton-Robinson buffer pH 9, 25° C., visual, read-out: Solubility (mg /mL) pH 9) [mg/mL] | EC50 (human GIPR) [nM] | EC50 (human glucagon R) [nM] | EC50 (human GLP-1R; [2]) [nM] | solubility ([1]; pH 3) [mg/mL] | solubility ([1]; pH 5) [mg/mL] | solubility ([1]; pH 7) [mg/mL] | solubility ([1]; pH 9) [mg/mL] | EC50 (human GIPR; [3]) [nM] | EC50 (human glucagon R; [4]) [nM] |
| --- | --- | --- | --- | --- | --- | --- | --- | --- | --- | --- | --- | --- | --- | --- |
| CC[C@H](C)[C@H](NC(=O)C(C)(C)NC(=O)[C@H](Cc1ccc(O)cc1)NC(=O)[C@H](CC(=O)O)NC(=O)[C@H](CO)NC(=O)[C@@H](NC(=O)[C@](C)(Cc1ccccc1)NC(=O)[C@@H](NC(=O)CNC(=O)[C@H](CCC(=O)O)NC(=O)C(C)(C)NC(=O)[C@@H](N)Cc1ccc(O)cc1)[C@@H](C)O)[C@@H](C)O)C(=O)NC(C)(C)C(=O)N[C@@H](CC(C)C)C(=O)N[C@@H](CC(=O)O)C(=O)N[C@@H](CCCCN)C(=O)N[C@@H](CCC(N)=O)C(=O)N[C@@H](C)C(=O)N[C@@H](CCC(N)=O)C(=O)N[C@@H](C)C(=O)N[C@@H](CCC(=O)O)C(=O)N[C@@H](Cc1ccccc1)C(=O)N[C@H](C(=O)N[C@@H](CCCCN)C(=O)N[C@@H](Cc1c[nH]c2ccccc12)C(=O)N[C@@H](CC(C)C)C(=O)N[C@@H](CC(C)C)C(=O)N[C@@H](CCCCN)C(=O)NCC(=O)NCC(=O)N1CCC[C@H]1C(=O)N[C@@H](CO)C(=O)N[C@@H](CO)C(=O)NCC(=O)N[C@@H](C)C(=O)N1CCC[C@H]1C(=O)N1CCC[C@H]1C(=O)N1CCC[C@H]1C(=O)N[C@@H](CO)C(=O)N[C@@H](CCCCN)C(N)=O)C(C)C [Example 2] (H-Y[Aib]EGT[αMeF]TSDY[Aib]I[Aib]LDKQAQAEFVKWLLKGGPSSGAPPPSK-NH2) | 0.016 | > 100 | > 100 | > 50 | > 50 | 0.0068 | > 1000 |  |  |  |  |  |  |  |
| CC(C)C[C@H](NC(=O)[C@H](CC(C)C)NC(=O)[C@H](Cc1c[nH]c2ccccc12)NC(=O)[C@H](CCCCN)NC(=O)[C@@H](NC(=O)[C@H](Cc1ccccc1)NC(=O)[C@H](CCC(=O)O)NC(=O)[C@H](CCC(N)=O)NC(=O)[C@H](CCC(N)=O)NC(=O)[C@H](C)NC(=O)[C@H](CCC(N)=O)NC(=O)[C@H](CCCCN)NC(=O)[C@H](CC(=O)O)NC(=O)[C@H](CC(C)C)NC(=O)[C@H](Cc1ccc(O)cc1)NC(=O)[C@H](CCCCN)NC(=O)C(C)(C)NC(=O)[C@H](Cc1ccc(O)cc1)NC(=O)[C@H](CC(=O)O)NC(=O)[C@H](CO)NC(=O)[C@@H](NC(=O)[C@](C)(Cc1ccccc1)NC(=O)[C@@H](NC(=O)CNC(=O)[C@H](CCC(=O)O)NC(=O)C(C)(C)NC(=O)[C@@H](N)Cc1ccc(O)cc1)[C@@H](C)O)[C@@H](C)O)C(C)C)C(=O)N[C@@H](CCCCN)C(=O)NCC(=O)NCC(=O)N1CCC[C@H]1C(=O)N[C@@H](CO)C(=O)N[C@@H](CO)C(=O)NCC(=O)N[C@@H](C)C(=O)N1CCC[C@H]1C(=O)N1CCC[C@H]1C(=O)N1CCC[C@H]1C(=O)N[C@@H](CO)C(N)=O [Example 26] (H-Y[Aib]EGT[αMeF]TSDY[Aib]KYLDKQAQQEFVKWLLKGGPSSGAPPPS-NH2) |  |  |  |  |  |  |  | 0.015 | > 200 | > 200 | > 200 | > 200 | 0.013 | > 1000 |
| CC(C)C[C@H](NC(=O)[C@H](CC(C)C)NC(=O)[C@H](Cc1c[nH]c2ccccc12)NC(=O)[C@H](CCCCN)NC(=O)[C@@H](NC(=O)[C@H](Cc1ccccc1)NC(=O)[C@H](CCC(=O)O)NC(=O)[C@H](CCC(N)=O)NC(=O)[C@H](CCC(N)=O)NC(=O)[C@H](C)NC(=O)[C@H](CCC(N)=O)NC(=O)[C@H](CCCCN)NC(=O)[C@H](CC(=O)O)NC(=O)[C@H](CC(C)C)NC(=O)[C@H](Cc1ccc(O)cc1)NC(=O)[C@H](CCCCN)NC(=O)C(C)(C)NC(=O)[C@H](Cc1ccc(O)cc1)NC(=O)[C@H](CC(=O)O)NC(=O)[C@H](CO)NC(=O)[C@@H](NC(=O)[C@](C)(Cc1ccccc1)NC(=O)[C@@H](NC(=O)CNC(=O)[C@H](CCC(=O)O)NC(=O)C(C)(C)NC(=O)[C@@H](N)Cc1ccc(O)cc1)[C@@H](C)O)[C@@H](C)O)C(C)C)C(=O)N[C@@H](CCCCN)C(=O)NCC(=O)NCC(=O)N1CCC[C@H]1C(=O)N[C@@H](CO)C(=O)N[C@@H](CO)C(=O)NCC(=O)N[C@@H](C)C(=O)N1CCC[C@H]1C(=O)N1CCC[C@H]1C(=O)N1CCC[C@H]1C(=O)N[C@@H](CO)C(=O)N[C@@H](CCCCN)C(N)=O [Example 25] (H-Y[Aib]EGT[αMeF]TSDY[Aib]KYLDKQAQQEFVKWLLKGGPSSGAPPPSK-NH2) |  |  |  |  |  |  |  | 0.014 | > 200 | > 200 | > 200 | > 200 | 0.013 | > 1000 |
| CC[C@H](C)[C@H](NC(=O)[C@H](C)NC(=O)[C@H](Cc1ccc(O)cc1)NC(=O)[C@H](CC(=O)O)NC(=O)[C@H](CO)NC(=O)[C@@H](NC(=O)[C@](C)(Cc1ccccc1)NC(=O)[C@@H](NC(=O)CNC(=O)[C@H](CCC(=O)O)NC(=O)C(C)(C)NC(=O)[C@@H](N)Cc1ccc(O)cc1)[C@@H](C)O)[C@@H](C)O)C(=O)NC(C)(C)C(=O)N[C@@H](CC(C)C)C(=O)N[C@@H](CC(=O)O)C(=O)N[C@@H](CCCCN)C(=O)N[C@@H](CCC(N)=O)C(=O)N[C@@H](C)C(=O)N[C@@H](CCC(N)=O)C(=O)N[C@@H](C)C(=O)N[C@@H](CCC(=O)O)C(=O)N[C@@H](Cc1ccccc1)C(=O)N[C@H](C(=O)N[C@@H](CCCCN)C(=O)N[C@@H](Cc1c[nH]c2ccccc12)C(=O)N[C@@H](CC(C)C)C(=O)N[C@@H](CC(C)C)C(=O)N[C@@H](CCCCN)C(=O)NCC(=O)NCC(=O)N1CCC[C@H]1C(=O)N[C@@H](CO)C(=O)N[C@@H](CO)C(=O)NCC(=O)N[C@@H](C)C(=O)N1CCC[C@H]1C(=O)N1CCC[C@H]1C(=O)N1CCC[C@H]1C(=O)N[C@@H](CO)C(=O)N[C@@H](CCCCN)C(N)=O)C(C)C [Example 1] (H-Y[Aib]EGT[αMeF]TSDYAI[Aib]LDKQAQAEFVKWLLKGGPSSGAPPPSK-NH2) | 0.012 |  |  |  |  | 0.0081 | > 1000 |  |  |  |  |  |  |  |
| CC[C@H](C)[C@H](NC(=O)C(C)(C)NC(=O)[C@H](Cc1ccc(O)cc1)NC(=O)[C@H](CC(=O)O)NC(=O)[C@H](CO)NC(=O)[C@@H](NC(=O)[C@](C)(Cc1ccccc1)NC(=O)[C@@H](NC(=O)CNC(=O)[C@H](CCC(=O)O)NC(=O)C(C)(C)NC(=O)[C@@H](N)Cc1ccc(O)cc1)[C@@H](C)O)[C@@H](C)O)C(=O)N[C@@H](CC1CCCCC1)C(=O)N[C@@H](CC(C)C)C(=O)N[C@@H](CC(=O)O)C(=O)N[C@@H](CCCCN)C(=O)N[C@@H](CCC(N)=O)C(=O)N[C@@H](C)C(=O)N[C@@H](CCC(N)=O)C(=O)N[C@@H](C)C(=O)N[C@@H](CCC(=O)O)C(=O)N[C@@H](Cc1ccccc1)C(=O)N[C@H](C(=O)N[C@@H](CCCCN)C(=O)N[C@@H](Cc1c[nH]c2ccccc12)C(=O)N[C@@H](CC(C)C)C(=O)N[C@@H](CC(C)C)C(=O)N[C@@H](CCCCN)C(=O)NCC(=O)NCC(=O)N1CCC[C@H]1C(=O)N[C@@H](CO)C(=O)N[C@@H](CO)C(=O)NCC(=O)N[C@@H](C)C(=O)N1CCC[C@H]1C(=O)N1CCC[C@H]1C(=O)N1CCC[C@H]1C(=O)N[C@@H](CO)C(=O)N[C@@H](CCCCN)C(N)=O)C(C)C [Example 14] (H-Y[Aib]EGT[αMeF]TSDY[Aib]I[Cha]LDKQAQAEFVKWLLKGGPSSGAPPPSK-NH2) | 0.021 |  |  |  |  | 0.013 | > 1000 |  |  |  |  |  |  |  |
| CC[C@H](C)[C@H](NC(=O)C(C)(C)NC(=O)[C@H](Cc1ccc(O)cc1)NC(=O)[C@H](CC(=O)O)NC(=O)[C@H](CO)NC(=O)[C@@H](NC(=O)[C@](C)(Cc1ccccc1)NC(=O)[C@@H](NC(=O)CNC(=O)[C@H](CCC(=O)O)NC(=O)C(C)(C)NC(=O)[C@@H](N)Cc1ccc(O)cc1)[C@@H](C)O)[C@@H](C)O)C(=O)NC(C)(C)C(=O)N[C@@H](CC(C)C)C(=O)N[C@@H](CC(=O)O)C(=O)N[C@@H](CCCCN)C(=O)N[C@@H](CCC(N)=O)C(=O)N[C@@H](C)C(=O)N[C@@H](CCC(N)=O)C(=O)N[C@@H](C)C(=O)N[C@@H](CCC(=O)O)C(=O)N[C@@H](Cc1ccccc1)C(=O)N[C@H](C(=O)N[C@@H](CCCCN)C(=O)N[C@@H](Cc1c[nH]c2ccccc12)C(=O)N[C@@H](CC(C)C)C(=O)N[C@@H](CC(C)C)C(=O)N[C@@H](CCCCN)C(=O)NCC(=O)NCC(=O)N1CCC[C@H]1C(=O)N[C@@H](CO)C(=O)N[C@@H](CO)C(=O)NCC(=O)N[C@@H](C)C(=O)N1CCC[C@H]1C(=O)N1CCC[C@H]1C(=O)N1CCC[C@H]1C(=O)N[C@@H](CO)C(N)=O)C(C)C [Example 6] (H-Y[Aib]EGT[αMeF]TSDY[Aib]I[Aib]LDKQAQAEFVKWLLKGGPSSGAPPPS-NH2) | 0.016 |  |  |  |  | 0.0073 | > 1000 |  |  |  |  |  |  |  |
